How the values were obtained:
Assay in all cases: relative viability (nuclei count vs DMSO), 5 days (fraction); higher = more cells survive
[1] = compound: NS(=O)(=O)OC[C@@H]1C[C@@H](n2ccc3c(N[C@H]4CCc5ccccc54)ncnc32)C[C@@H]1O [MLN4924] + C[C@]1(O)C[C@@H](c2nc(-c3ccc4ccc(-c5ccccc5)nc4c3)c3c(N)nccn32)C1 [Linsitinib] (partner 1 µM)
Summary of the method: (§1)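 Values are medians from duplicate plates. Each reflects relative viability, defined as the nuclei count of treated wells over that of vehicle wells. Lung cancer cell lines in 1536-well plates were pin-tool dosed one day after seeding with one drug alone or with a fixed anchor-drug dose plus five library-drug doses (not always all listed) in √10 steps, then fixed, stained and imaged at 4× after 5 days.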

[2] = compound: CC[C@H](C)N1C=C(C2=C(C=C(C=C21)C3=CN=C(C=C3)N4CCNCC4)C(=O)NCC5=C(C=C(NC5=O)C)C)C [GSK126] + C[C@]1(O)C[C@@H](c2nc(-c3ccc4ccc(-c5ccccc5)nc4c3)c3c(N)nccn32)C1 [Linsitinib] (partner 1 µM)
Summary of the method: as §1

[3] = compound: CC[C@H](C)N1C=C(C2=C(C=C(C=C21)C3=CN=C(C=C3)N4CCNCC4)C(=O)NCC5=C(C=C(NC5=O)C)C)C [GSK126] + CC(=O)c1c(C)c2cnc(Nc3ccc(N4CCNCC4)cn3)nc2n(C2CCCC2)c1=O [Palbociclib] (partner 0.5 µM)
Summary of the method: as §1

[4] = compound: CC[C@H](C)N1C=C(C2=C(C=C(C=C21)C3=CN=C(C=C3)N4CCNCC4)C(=O)NCC5=C(C=C(NC5=O)C)C)C [GSK126] + O=C(CCCCCCC(=O)Nc1ccccc1)NO [Vorinostat] (partner 1 µM)
Summary of the method: as §1

| Cell Line | relative viability ([1]; first compound 0.04 µM) | relative viability ([1]; first compound 0.1265 µM) | relative viability ([1]; first compound 0.4 µM) | relative viability ([1]; first compound 1.265 µM) | relative viability ([1]; first compound 4 µM) | relative viability ([2]; first compound 0.08 µM) | relative viability ([2]; first compound 0.253 µM) | relative viability ([2]; first compound 0.8 µM) | relative viability ([2]; first compound 2.53 µM) | relative viability ([2]; first compound 8 µM) | relative viability ([3]; first compound 0.08 µM) | relative viability ([3]; first compound 0.253 µM) | relative viability ([3]; first compound 0.8 µM) | relative viability ([3]; first compound 2.53 µM) | relative viability ([3]; first compound 8 µM) | relative viability ([4]; first compound 0.08 µM) | relative viability ([4]; first compound 0.253 µM) | relative viability ([4]; first compound 0.8 µM) | relative viability ([4]; first compound 2.53 µM) | relative viability ([4]; first compound 8 µM) |
| --- | --- | --- | --- | --- | --- | --- | --- | --- | --- | --- | --- | --- | --- | --- | --- | --- | --- | --- | --- | --- |
| PC-14 | 0.975 | 0.79 | 0.366 | 0.143 | 0.144 | 0.944 | 0.994 | 0.982 | 0.968 | 0.954 | 0.517 | 0.505 | 0.539 | 0.566 | 0.469 | 0.768 | 0.732 | 0.623 | 0.745 | 0.692 |
| NCI-H441 | 0.47 | 0.374 | 0.205 | 0.111 | 0.159 | 0.684 | 0.583 | 0.599 | 0.578 | 0.651 | 0.193 | 0.232 | 0.21 | 0.243 | 0.257 | 1.04 | 0.59 | 0.714 | 0.673 | 0.791 |
| NCI-H1395 | 0.991 | 0.771 | 0.605 | 0.384 | 0.377 | 1.26 | 1.01 | 0.991 | 0.998 | 1.08 | 0.656 | 0.568 | 0.597 | 0.681 | 0.505 | 0.655 | 0.731 | 0.715 | 0.855 | 0.743 |
| NCI-H661 | 0.636 | 0.757 | 0.576 | 0.258 | 0.247 | 0.531 | 0.561 | 0.519 | 0.719 | 0.497 | 0.43 | 0.419 | 0.414 | 0.43 | 0.431 | 0.779 | 0.746 | 0.734 | 0.716 | 0.69 |
| NCI-H727 | 0.402 | 0.169 | 0.234 | 0.21 | 0.24 | 0.218 | 0.388 | 0.26 | 0.319 | 0.364 | 0.681 | 0.641 | 0.67 | 0.75 | 0.659 | 1.45 | 1.16 | 1.28 | 1.1 | 1.19 |
| NCI-H1734 | 1.01 | 1.09 | 0.519 | 0.178 | 0.155 | 0.871 | 0.896 | 0.814 | 0.846 | 0.946 | 0.384 | 0.348 | 0.342 | 0.375 | 0.333 | 0.906 | 0.816 | 0.804 | 0.766 | 0.769 |
